Measurements reported in ChEMBL document CHEMBL1157539, “Thousands of chemical starting points for antimalarial lead identification” (Nature, 2010).

Each molecule was assayed on Plasmodium falciparum (assay: GSK_TCMDC: Inhibition of Plasmodium falciparum 3D7 in whole erythrocytes, using parasite LDH activity as an index of growth.). Details: Plasmodium falciparum, 3D7.
Assay type: functional, organism-based
`CCOc1ccc2nc(C)cc(N/N=C/c3cccc([N+](=O)[O-])c3)c2c1` was tested, and the XC50 was 664 nM.
`CC1CCN(Cc2c(O)ccc3c(O)c(-c4nc5ccccc5s4)c(=N)oc23)CC1` was tested, and the XC50 was 162 nM.
With `CCN(CC)CCN(Cc1ccc(-c2ccc(C(F)(F)F)cc2)cc1)C(=O)Cn1cc(Cc2cnn(C)c2)c(=O)nc1/C=C/c1ccc(F)cc1` the XC50 was 1060 nM.
`CC1(C)CNCc2cc(NC(=O)/C=C/c3ccc(Cl)cc3)ccc21` was tested, and the XC50 was 1180 nM.
`COc1cc(F)c2ncc(Cl)c([C@@H](O)CN3CCC(NCc4cc5c(cn4)OCCO5)CC3)c2c1` gave an XC50 of 102 nM.
`Oc1ccc(CN2CCC(N3CCN(CCc4ccccc4)CC3)C(O)C2)cc1Cl` (configuration not stated) showed an XC50 of 865 nM.
`CCCOc1ccc(-c2nonc2NC(=O)c2cccc(OC)c2)cc1OCCC` showed an XC50 of 1150 nM.
Molecule `O=C(/C=C/c1ccc(Cl)c(Cl)c1)NCCCCCN1CCC(NC(=O)Nc2cc(F)ccc2F)CC1` has an XC50 of 697 nM.
In the case of `Cc1ccc(NC(=S)N2CCCN(CCCCCNC(=O)/C=C/c3ccc(Cl)c(Cl)c3)CC2)cc1Cl`, the XC50 is reported as 916 nM.
`Cc1ccccc1Oc1nc2ccccc2nc1SCC(=O)NC(C)C` was tested, and the XC50 was 197 nM.
`O=C(Nc1cccc(CN2CCN(Cc3ccc(O)cc3)CC2)c1)c1cc2ccccc2o1` was tested, and the XC50 was 1180 nM.
Work on `CCN1CCN(c2cc(C)c3cc(NC(=O)c4cccc(C(F)(F)F)c4)ccc3n2)CC1` yielded an XC50 of 568 nM.
`CC1CCCCC1N(C)C1CCN(CCCNC(=O)C=Cc2ccccc2Cl)CC1` (configuration not stated) showed an XC50 of 666 nM.
With `Cc1ccc(NC(=O)Nc2ccc(Cl)c(C(F)(F)F)c2)cc1-c1ccc(C(=O)NCCN2CCOCC2)cc1` the XC50 was 811 nM.
For `CCCN(CCC)C(C)CCC(C)Nc1c2ccc(Cl)cc2nc2ccc(OC)cc12` (configuration not stated), the XC50 was 70.8 nM.
`CO/C(=C\C=C\c1cc2cc(Cl)c(Cl)cc2[nH]1)C(=O)NC1CC2CCC(C1)N2C` (configuration not stated) gave an XC50 of 1030 nM.
`CC(C)(C)OC(=O)Nc1cccc(-c2csc(NC(=N)N)n2)c1` showed an XC50 of 836 nM.
`CC(C)CCN1CCC(Oc2cccc(NC(=O)c3ccc(C(F)(F)F)cc3)c2)CC1` was tested, and the XC50 was 630 nM.
For `CCN(CC)c1ccc(-c2nc3cc(Cl)cnc3[nH]2)cc1`, the XC50 was 1130 nM.
With `CCc1cn(CC(=O)N(CCOc2ccc(-c3ccc(C(F)(F)F)cc3)cc2)CCN(CC)CC)c(SCc2ccc(F)cc2)nc1=O` the XC50 was 777 nM.
`O=C(NCCc1ccc(Cl)c(Cl)c1)C1CCCN(C(=O)c2ccc(O)c(-c3ccc(Cl)c(Cl)c3)c2)C1` (configuration not stated) gave an XC50 of 780 nM.
`COc1cc2nc(N3CCC(CNC(=O)c4ccc(-c5ccc(C(=O)N(C)C)cc5OCCO)cc4)CC3)nc(N)c2cc1OC` gave an XC50 of 645 nM.
`CCOc1ccc(C(C)NC(=O)C2COc3ccccc3O2)cc1OCC` (configuration not stated) showed an XC50 of 899 nM.
`Cc1ccc(Cn2ncc(N3CC(C)NC(C)C3)c(Cl)c2=O)cc1NC(=O)Nc1ccc(-c2ccccc2)cc1` (configuration not stated) was tested, and the XC50 was 739 nM.
For `CN1c2ccc([N+](=O)[O-])cc2C(C)(C)C12C=Cc1cc(Br)cc([N+](=O)[O-])c1O2` (configuration not stated), the XC50 was 785 nM.
Molecule `N#Cc1ccc2c(c1)CN(CCC1CCC(NC(=O)c3cc4cc(OC(F)(F)F)ccc4[nH]3)CC1)CC2` (configuration not stated) has an XC50 of 777 nM.
`COc1ccccc1N1CCN(C(C(=O)NCc2ccc3c(c2)OCO3)c2ccc(C)cc2)CC1` (configuration not stated) showed an XC50 of 985 nM.
Work on `CCC1CN2CCc3cc(OC)c(OC)cc3C2CC1CC1NCCc2c1[nH]c1ccc(O)cc21` (configuration not stated) yielded an XC50 of 103 nM.
Work on `Cc1[nH]c2ccc(C#N)cc2c(=O)c1Br` yielded an XC50 of 640 nM.
Work on `O=c1ccc(CNc2nc(NCCc3ccccc3)nc3ccc(Cl)cc23)c[nH]1` yielded an XC50 of 783 nM.
Molecule `O=C(N[C@@H](CC1CCCCC1)C(=O)NC1CCCCCC1)c1ccc(O)c(-c2ccc(Cl)c(Cl)c2)c1` has an XC50 of 102 nM.
Work on `CC(C)(C)C(C)(C)Cc1ccc(O)c(CN2CCN(c3ccccc3)CC2)c1` yielded an XC50 of 601 nM.
`O=S(=O)(c1ccc(OCc2ccc(Cl)cc2)cc1)c1cc2c(cc1OCc1ccccc1)CCN(C1CCC1)CC2` showed an XC50 of 1020 nM.
Work on `COc1cccc(NC(=O)N2CCOC(CCN3CCC4(CCc5ccccc54)CC3)(c3ccc(Cl)c(Cl)c3)C2)c1` (configuration not stated) yielded an XC50 of 1010 nM.
`COc1ccc(-n2c(=O)c3c(n4c(SC(C)C)nnc24)-c2ccccc2CC32CCCCC2)cc1` was tested, and the XC50 was 502 nM.
`c1cc(COc2ccc(C3=NCCN3)cc2)nc(COc2ccc(C3=NCCN3)cc2)c1` was tested, and the XC50 was 147 nM.
Molecule `O=C(NCc1ccc(Cl)c(Cl)c1)c1cccc(C2CCCN(Cc3ccc4[nH]cnc4c3)C2)c1` (configuration not stated) has an XC50 of 932 nM.
